The values below come from patent EP2423181A1, “Multitarget substituted biphenyl diol derivatives” (PROUS INSTITUTE FOR BIOMEDICAL RESEARCH S.A., priority 2010, dated 2012).

The target of assay [1] is T1, MAPK1 (ERK2) (Homo sapiens, UniProt P28482).
T1 construct: host or cells: E. coli
The assay can be described thus: MAPK1 (ERK2) kinase inhibition ([32P]MBP). Type of assay: biochemical. As to the method: Protein serine threonine kinase MAPK1(ERK2) was assessed in human recombinant E.Coli using 50 µg/ml myelin basic protein (MBP) as a substrate after preincubation and incubation times of 15 and 30 min, respectively, at 37°C in 20 mM MOPS, pH 7.2, 5 mM EGTA, 20 mM MgCl2, 1 mM DTT, 25 mM β-glycerophosphate, 1 mM Na3VO4 incubation buffer. The inhibitory activity was measured by quantification of [^32P]MBP (Jonhson, G.L. and Lapadat, R. Science 2002, 298(5600), 1911-1912). Table 8. Inhibition of MAPK1 at 10 µM

In assay [2] the target is T2, Akt3 (PRKBG) (Homo sapiens, UniProt Q9Y243).
T2 construct: host or cells: insect cells
As to the kind of experiment: Akt3 kinase inhibition ([32P]Crosstide KK). Type of assay: biochemical. The protocol:
Akt3 activity was obtained in human recombinant insect cells using Crosstide KK 10 µM as a substrate. The incubation buffer was 20 mM MOPS, pH 7.2, 25 mM β-Glycerophosphate, 1 mM DTT, 5 mM EGTA, 20 mM MgCl2, 1 mM Na3VO4 and the preincubation and incubation times 15 and 30 min, respectively, at 37°C. The quantification of inhibition was assessed by the measure of [^32P]Crosstide KK (Laine, J. Et al. J Biol Chem 2002, 277(5), 3743-3751). Table 6. Inhibition of Akt3 (PRKBG) at 10 µM

Assay [3] deals with T3, Gonadotrophin-releasing hormone receptors (GnRH, LH-RH)R (Homo sapiens, UniProt P30968).
T3 construct: expressed in transfected cells; host or cells: Chem-1 cells
T3 sequence (P30968 1-328): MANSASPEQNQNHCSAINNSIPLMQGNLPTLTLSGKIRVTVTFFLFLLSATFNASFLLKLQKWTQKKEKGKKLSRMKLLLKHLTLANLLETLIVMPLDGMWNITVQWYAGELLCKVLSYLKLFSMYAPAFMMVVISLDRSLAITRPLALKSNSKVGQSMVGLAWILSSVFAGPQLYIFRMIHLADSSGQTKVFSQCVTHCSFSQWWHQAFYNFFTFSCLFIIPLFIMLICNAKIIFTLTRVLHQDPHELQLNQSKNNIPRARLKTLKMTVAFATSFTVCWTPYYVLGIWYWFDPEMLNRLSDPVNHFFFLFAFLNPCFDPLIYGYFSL
As to the kind of experiment: GnRH radioligand binding assay. The conditions noted are these: read-out: % Inhibition at 10 µM. An excerpt: Gonadotrophin-releasing hormone receptors (GnRH, LH-RH)R are a family of G protein-coupled receptors for GnRH, which promotes the secretion of luteinizing hormone (LH) and follicle-stimulating hormone (FSH). The activation of this receptor promotes, through estrogen receptors (ER) located in the cytosol, an increase in gene transcription and activation of tumor suppressor genes, DNA repair, cell division and cell proliferation. GnRH agonists are useful in breast, prostate and ovarian cancer, endometriosis, melanoma, rheumatoid arthritis and Alzheimer's disease. Table 17 presents the results from radioligand binding studies for GnRH for selected compounds using human recombinant Chem-1 cells (Halmos G, Schally AV, Pinski J, Vadillo-Buenfill M, Groot K. Down regulation of pituitary receptors for luteinizing hormone-releasing hormone (LH-RH) in rats by LH-RH antagonist Cetrorelix. Prco Natl Acad Sci USA 1996;93(6):2398-2402). The specific and non specific ligands used were [^125l] [D-Trp^6]-LH-RH (0.05 nM) and [D-Trp^6]-LH-RH ([…]) and after 60 min of incubation at 25°C in a 50 mM HEPES, pH 7.5, 5 mM MgCl2, 1 mM CaCl2, and 0.2% BSA the activity was measured by radioligand binding. Table 17. GnRH radioligand binding assay

Assay [4] deals with mice. The assay can be described thus: Hot plate test (analgesic activity). Type of assay: in vivo. In general terms: Thermal pain tests record how soon the animal reacts.
For assay [5], the system named is mice. The assay can be described thus: Hot plate test (analgesic activity). Type of assay: in vivo. The protocol:
The hot plate test was used as an animal model of thermally-induced pain. The inhibitory activity measured on the time licking and biting induced by temperature (30 sec max at 55°C) indicates analgesic effect. […] Table 13. Analgesic activity of example 1 in the hot plate test
The source holds these as a separate data set.

Assay [6] addresses ERα (Homo sapiens, UniProt P03372). The assay can be described thus: Inhibition of ERα. Type of assay: binding. The conditions noted are these: slight, non-significant.
Assay [7] deals with ERβ (Homo sapiens, UniProt Q92731). The assay can be described thus: Inhibition of ERβ. Type of assay: binding. Particulars: slight, non-significant.

Structures can show the parent of a compound that is named as a salt. Where two headings read alike, the source gives them in different places.

By inhibition is commonly meant the change of the read-out against control, counted positive when it falls.

T2 sequence (Q9Y243 whole entry): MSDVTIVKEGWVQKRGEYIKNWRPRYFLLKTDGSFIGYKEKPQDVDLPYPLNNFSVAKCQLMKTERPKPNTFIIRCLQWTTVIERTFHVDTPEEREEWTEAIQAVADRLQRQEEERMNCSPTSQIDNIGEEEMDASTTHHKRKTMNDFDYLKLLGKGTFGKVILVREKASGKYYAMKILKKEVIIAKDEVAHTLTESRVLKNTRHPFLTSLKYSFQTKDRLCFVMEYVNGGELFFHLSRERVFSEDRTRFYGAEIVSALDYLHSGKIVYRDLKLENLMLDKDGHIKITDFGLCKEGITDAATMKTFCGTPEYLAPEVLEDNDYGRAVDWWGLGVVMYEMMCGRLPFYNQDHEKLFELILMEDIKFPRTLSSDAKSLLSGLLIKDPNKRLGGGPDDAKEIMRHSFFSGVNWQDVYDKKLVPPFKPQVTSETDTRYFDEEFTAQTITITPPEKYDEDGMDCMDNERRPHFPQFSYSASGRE
T1 sequence (P28482 whole entry): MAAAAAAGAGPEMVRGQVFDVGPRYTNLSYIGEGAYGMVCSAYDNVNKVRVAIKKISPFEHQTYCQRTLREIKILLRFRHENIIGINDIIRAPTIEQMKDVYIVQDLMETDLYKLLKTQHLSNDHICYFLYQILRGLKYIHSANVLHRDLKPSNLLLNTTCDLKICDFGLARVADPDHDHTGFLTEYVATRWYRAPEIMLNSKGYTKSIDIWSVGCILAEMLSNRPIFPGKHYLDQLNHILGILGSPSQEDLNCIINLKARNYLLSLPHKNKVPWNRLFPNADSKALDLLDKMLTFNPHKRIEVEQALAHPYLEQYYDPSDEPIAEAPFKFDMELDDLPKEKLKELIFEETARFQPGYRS
Sequence of ERβ (Q92731 whole entry, species assumed): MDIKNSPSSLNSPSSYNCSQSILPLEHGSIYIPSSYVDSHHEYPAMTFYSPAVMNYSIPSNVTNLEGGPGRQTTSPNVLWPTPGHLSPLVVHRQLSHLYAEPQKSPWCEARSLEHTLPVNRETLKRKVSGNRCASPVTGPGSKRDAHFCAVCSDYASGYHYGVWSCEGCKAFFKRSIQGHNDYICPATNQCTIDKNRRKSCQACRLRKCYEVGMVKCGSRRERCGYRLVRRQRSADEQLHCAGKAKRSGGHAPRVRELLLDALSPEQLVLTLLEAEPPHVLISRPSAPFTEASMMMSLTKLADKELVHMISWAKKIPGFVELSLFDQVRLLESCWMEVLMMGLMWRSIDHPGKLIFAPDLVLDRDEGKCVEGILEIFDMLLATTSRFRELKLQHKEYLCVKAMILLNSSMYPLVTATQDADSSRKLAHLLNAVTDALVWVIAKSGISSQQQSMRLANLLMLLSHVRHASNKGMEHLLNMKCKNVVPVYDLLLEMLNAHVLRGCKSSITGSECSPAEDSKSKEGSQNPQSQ
Sequence of ERα (P03372 whole entry, species assumed): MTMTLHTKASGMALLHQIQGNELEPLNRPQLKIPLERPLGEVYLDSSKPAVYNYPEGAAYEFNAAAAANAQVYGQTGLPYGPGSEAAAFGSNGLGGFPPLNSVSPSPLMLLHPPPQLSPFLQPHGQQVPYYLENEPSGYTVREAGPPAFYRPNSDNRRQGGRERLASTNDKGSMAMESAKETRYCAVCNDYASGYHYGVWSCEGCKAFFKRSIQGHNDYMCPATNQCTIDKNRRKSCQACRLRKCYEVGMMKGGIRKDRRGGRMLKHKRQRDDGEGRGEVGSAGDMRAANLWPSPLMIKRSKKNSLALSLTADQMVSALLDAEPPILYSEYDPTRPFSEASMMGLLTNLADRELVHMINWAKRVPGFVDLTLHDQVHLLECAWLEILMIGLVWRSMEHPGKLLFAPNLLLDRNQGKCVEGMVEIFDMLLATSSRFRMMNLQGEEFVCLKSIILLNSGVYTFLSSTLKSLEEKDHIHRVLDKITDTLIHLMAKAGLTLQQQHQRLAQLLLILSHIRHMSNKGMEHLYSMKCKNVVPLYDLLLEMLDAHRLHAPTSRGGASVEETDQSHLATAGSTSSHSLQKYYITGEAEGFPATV

On to `C=CCc1ccc(O)c(-c2ccc(OC(CCNC)c3ccccc3)c(CC=C)c2)c1` (centres unmarked) [Example 5, 3',5-Diallvl-4'-13-(methylamino)-1-phenylpropoxy]biphenyl-2-ol hydrochloride], for which the inhibition at 10 µM worked out at 80% in assay [1], 101% in assay [2] and 37% in assay [3].

Regarding `C=CCc1ccc(O)c(-c2cc(CC=C)ccc2OC(CCNC)c2ccccc2)c1.Cl` (centres unmarked) [Example 1, 5,5'-Diallyl-2'-[3-(methylamino)-1-phenylpropoxy]biphenyl-2-ol hydrochloride], the “Time Licking and biting (sec) Early phase (0-5 min)” value amounted to 57 s in assay [4] (dose 1 mg/kg i.p.), 45 s in assay [4] (dose 5 mg/kg i.p.), 38 s in assay [4] (dose 10 mg/kg i.p.) and 30 s in assay [4] (dose 30 mg/kg i.p.). Further, the “Time Licking and biting (sec) Late phase (15-30 min)” value amounted to 200 s in assay [4] (dose 1 mg/kg i.p.), 150 s in assay [5] (dose 5 mg/kg i.p.), 150 s in assay [5] (dose 10 mg/kg i.p.) and 20 s in assay [5] (dose 30 mg/kg i.p.). Moreover, the inhibition at 10 µM in assay [1] (MAPK1, at 10 µM, read-out: % Inhibition) stood at 58%; in assay [2] (Akt3 (PRKBG), at 10 µM, read-out: % Inhibition), 99%; in assay [6] it was 13%; in assay [7], 7%; in assay [3] (GnRH radioligand binding, 10 µM), 50%. For the same compound, the “antinociceptive activity in the hot plate test” value in assay [5] (dose not given) is reported as “antinociceptive activity”.
